Test system: human B cells
Settings: 500 μM vs. 0 μM hydrogen peroxide

In the case of OO [hydrogen peroxide], the “average size of the DNA and label incorporation density (FIG. 8B)” value (average molecule length and labels/100 kb) is reported as “clear oxidative damage detection in the form of DSBs and SSBs” and the “DNA size histograms of treated vs. untreated cells (FIG. 8A)” value (triplicate samples) is reported as “clear shift to smaller fragment sizes”.

Reference: patent US20140030705A1, “SYSTEMS AND METHODS FOR ASSESSING BIOMOLECULE CHARACTERISTICS” (BioNano Genomics, Inc., priority 2010, published 2014)
